Key:
[1] = tested on: IL10 secretion in OCI-LY10 cells; test: Human IL10 secretion assay, Assay 2 (MSD); type: cell-based; conditions: Homo sapiens, 24 h incubation, Meso Scale Discovery, read-out: IL-10 Secretion IC50 [nM] Assay 2
Protocol: IL10 is one of the cytokines that are regulated via activation of NF-kB signaling. For example, in ABC-DLBCL cell lines, the activated NF-kB signaling leads to increased IL10 secretion. Inhibition of NF-kB signaling has been shown leading to decreased IL10 secretion.
Assay 2: OCI-LY10 cells were seeded in IMEM supplemented with 20% fetal bovine serum at 4.8×10^5 cells per 160 μL per well in 96-well V-bottom cell culture plates (corning, 3894), treated with 120 nL of 3-fold serial compound dilutions, starting at 4 mM. The final vehicle concentration was 0.075% DMSO in all wells. After a 24 h incubation, human IL-10 precoated plates (Meso Scale Discovery) were washed 3 times with PBST, and 50 μL culture medium was aspirated into the MSD plate and incubated at 4° C. overnight. The supernatant was then discarded, and the wells were washed 3 times with PB ST. SULFO-TAG Anti-human IL-10 Antibody (50×) was diluted 50-fold according to the Meso Scale Protocol, then 25 μL of SULFO-TAG Anti-human IL-10 Antibody (1×) was added. After 2 h of incubation at RT, the supernatant was discarded, and the well was washed 3 times with PBST. 2×read buffer was added and the signal was read on an MSD Sector S600. The effect of a particular compound on IL10 secretion is shown relative to the effect of DMSO; set as 100%. IC50 values (nM) were determined using 4-parametric curve-fitting.

[2] = target: T1, full-length MALT1 protein His-MALT1(1-824) (Homo sapiens, UniProt Q9UDY8); test: MALT1 protease assay, Assay 2 (1 nM MALT1, Ac-LRSR-AMC substrate); type: biochemical; conditions: 1 nM MALT1, 50 μM Ac-LRSR-AMC, 2 h pre-incubation, 8 hr incubation at RT
T1 construct: full-length MALT1 protein His-MALT1(1-824); His (N); made in house; host or cells: baculovirus-infected insect cells
T1 sequence (Q9UDY8 1-824): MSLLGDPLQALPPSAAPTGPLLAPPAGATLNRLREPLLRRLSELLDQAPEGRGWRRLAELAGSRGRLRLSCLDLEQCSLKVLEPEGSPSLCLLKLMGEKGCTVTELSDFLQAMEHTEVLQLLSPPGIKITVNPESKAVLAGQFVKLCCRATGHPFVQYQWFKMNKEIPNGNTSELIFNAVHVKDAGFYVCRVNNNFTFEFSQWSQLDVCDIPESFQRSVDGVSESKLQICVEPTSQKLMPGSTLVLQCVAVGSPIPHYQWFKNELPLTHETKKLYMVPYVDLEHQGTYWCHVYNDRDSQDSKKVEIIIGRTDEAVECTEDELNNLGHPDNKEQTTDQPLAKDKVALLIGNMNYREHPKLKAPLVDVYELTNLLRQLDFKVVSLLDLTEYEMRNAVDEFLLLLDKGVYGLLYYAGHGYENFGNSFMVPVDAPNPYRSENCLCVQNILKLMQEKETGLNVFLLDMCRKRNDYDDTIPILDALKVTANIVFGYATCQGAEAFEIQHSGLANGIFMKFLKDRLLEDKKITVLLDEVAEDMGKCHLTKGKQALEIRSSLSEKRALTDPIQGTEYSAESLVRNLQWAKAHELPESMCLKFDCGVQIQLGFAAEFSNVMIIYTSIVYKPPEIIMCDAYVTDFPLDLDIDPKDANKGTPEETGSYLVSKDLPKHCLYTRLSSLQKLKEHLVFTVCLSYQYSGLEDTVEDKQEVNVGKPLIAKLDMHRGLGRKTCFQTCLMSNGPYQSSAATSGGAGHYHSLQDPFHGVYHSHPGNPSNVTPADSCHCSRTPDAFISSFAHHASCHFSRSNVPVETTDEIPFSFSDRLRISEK
Summary of the method: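 Full-length His-MALT1(1-824) from baculovirus-infected insect cells, pre-incubated with compound 2 h at RT (0.1% DMSO). Then 50 μM Ac-LRSR-AMC added. Buffer was Tris pH 7.5 with 600 mM sodium citrate, DTT, EDTA and BSA. Fluorescence (ex 355/em 460 nm) was read after 8 h at RT and normalized to high/low controls. IC50 from non-linear regression.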

[3] = target: T1, full-length MALT1 protein His-MALT1(1-824); test: MALT1 protease assay, Assay 1 (2 nM MALT1, Ac-LRSR-AMC substrate); type: biochemical; conditions: 2 nM MALT1, 50 μM Ac-LRSR-AMC, 2 h pre-incubation, 8 hr incubation at RT
Protocol: MALT1 protease activity was assessed in an in vitro assay using a tetrapeptide as substrate and full-length MALT1 protein His-MALT1(1-824) purified from baculovirus-infected insect cells. The tetrapeptide substrate is Ac-LRSR-AMC (SM Biochemicals) with Km measured at around 100 μM.
The final assay buffer includes 1 nM (Assay 2) or 2 nM (Assay 1) of MALT1 full-length protein, 50 μM Ac-LRSR-AMC substrate, 50 mM Tris pH 7.5, 600 mM Sodium Citrate, 1 mM DTT, 1 mM EDTA, and 0.05% BSA in 384-well plate format using black microtiter square well plates (Optiplate 384-F, Perkin Elmer).
Test compounds were dissolved in 100% DMSO at stock of 10 mM, with final DMSO concentration 0.1%. Test compounds were pre-incubated with MALT1 protein for 2 h at room temperature. Substrate was added after the pre-incubation and fluorescence signal was measured using Envision at excitation 355 nm and emission 460 nm after 8 hr incubation at RT. Increase in the assay signal was linear over this period and proportional with increase in the enzyme content.
The fluorescence units were transformed to percentage of remaining activity by using the high control (HC, median of fluorescence signal from wells containing MALT1 protein, substrate, and DMSO) and low control (LC, median of fluorescence signal from wells with substrate only) with the formula below: […]
IC50 and Hill coefficients were obtained using Graph Pad Prism (Graph Pad software, Inc, USA) with non-linear regression analysis.

`CC1(C)CC(C(=O)Nc2cnc(OC(F)F)c(C#N)c2)c2cnc3cc(Cl)nn3c21` (single isomer, unassigned) [Example 79, 2-chloro-N-(5-cyano-6-(difluoromethoxy)pyridin-3-yl)-8,8-dimethyl-7,8-dihydro-6H-cyclopenta[e]pyrazolo[1,5-a]pyrimidine-6-carboxamide] was tested, and the IC50 [1] was 10 to 100 nM and the IC50 [2] was less than 10 nM.

Work on `CC1(C)CC(C(=O)Nc2cnc(-c3nnn(CCO)n3)c(Cl)c2)c2cnc3cc(Cl)nn3c21` (stereo not shown) [Example 123, 2-chloro-N-(5-chloro-6-(2-(2-hydroxyethyl)-2H-tetrazol-5-yl)pyridin-3-yl)-8,8-dimethyl-7,8-dihydro-6H-cyclopenta[e]pyrazolo[1,5-a]pyrimidine-6-carboxamide] yielded an IC50 [1] of no less than 1000 nM and an IC50 [2] of 10 to 100 nM.

`Cc1cn2ncc3c(c2n1)C(C)(C)CC3C(=O)Nc1cnc(-n2nccn2)c(Cl)c1` (single isomer, unassigned) [Example 189, N-(5-chloro-6-(2H-1,2,3-triazol-2-yl)pyridin-3-yl)-2,9,9-trimethyl-8,9-dihydro-7H-cyclopenta[d]imidazo[1,2-b]pyridazine-7-carboxamide] was tested, and the IC50 [1] was 100 to 1000 nM and the IC50 [2] was less than 10 nM.

Work on `CC1(C)CC(C(=O)Nc2cnc(-n3nccn3)c(C(F)F)c2)c2cnc3cc(Cl)nn3c21` (single isomer, unassigned) [Example 47, 2-chloro-N-(5-(difluoromethyl)-6-(2H-1,2,3-triazol-2-yl)pyridin-3-yl)-8,8-dimethyl-7,8-dihydro-6H-cyclopenta[e]pyrazolo[1,5-a]pyrimidine-6-carboxamide] yielded an IC50 [1] of 100 to 1000 nM and an IC50 [2] of less than 10 nM.

Work on `CC(C)(O)c1cnn(-c2ncc(NC(=O)C3CC(C)(C)c4c3cnc3cc(Cl)nn43)cc2Cl)n1` (single isomer, unassigned) [Example 22, 2-chloro-N-(5-chloro-6-(4-(2-hydroxypropan-2-yl)-2H-1,2,3-triazol-2-yl)pyridin-3-yl)-8,8-dimethyl-7,8-dihydro-6H-cyclopenta[e]pyrazolo[1,5-a]pyrimidine-6-carboxamide] yielded an IC50 [3] of 100 to 1000 nM.

With `CC1(C)C[C@@H](C(=O)Nc2cnc(-n3nccn3)c(Cl)c2)c2cnc3cc(C#N)nn3c21` (single isomer, unassigned) [Example 3, N-(5-chloro-6-(2H-1,2,3-triazol-2-yl)pyridin-3-yl)-2-cyano-8,8-dimethyl-7,8-dihydro-6H-cyclopenta[e]pyrazolo[1,5-a]pyrimidine-6-carboxamide] the IC50 [3] was no less than 1000 nM.

Compound `CC1(C)C[C@@H](C(=O)Nc2cnc(N3CCCC3)c(Cl)c2)c2cnc3cc(Cl)nn3c21` (single isomer, unassigned) [Example 16, 2-chloro-N-(5-chloro-6-(pyrrolidin-1-yl)pyridin-3-yl)-8,8-dimethyl-7,8-dihydro-6H-cyclopenta[e]pyrazolo[1,5-a]pyrimidine-6-carboxamide] has an IC50 [3] of no less than 1000 nM.

With `Cc1cc2ncc3c(n2n1)C1(CC1)CC3C(=O)Nc1cnc(-n2nccn2)c(Cl)c1` (stereo not shown) [Example 18, N-(5-chloro-6-(2H-1,2,3-triazol-2-yl)pyridin-3-yl)-2-methyl-6,7-dihydrospiro[cyclopenta[e]pyrazolo[1,5-a]pyrimidine-8,1′-cyclopropane]-6-carboxamide] the IC50 [3] was 100 to 1000 nM.

Work on `CC1(C)CC(C(=O)Nc2cnc(-n3cc(C#N)cn3)c(Cl)c2)c2cnc3cc(Cl)nn3c21` (single isomer, unassigned) [Example 15, 2-chloro-N-(5-chloro-6-(4-cyano-1H-pyrazol-1-yl)pyridin-3-yl)-8,8-dimethyl-7,8-dihydro-6H-cyclopenta[e]pyrazolo[1,5-a]pyrimidine-6-carboxamide] yielded an IC50 [3] of 100 to 1000 nM.

`Cc1cc2ncc3c(n2n1)C(C)(C)C[C@H]3C(=O)Nc1cnc(-n2nccn2)c(Cl)c1` (single isomer, unassigned) [Example 5, N-(5-chloro-6-(2H-1,2,3-triazol-2-yl)pyridin-3-yl)-2,8,8-trimethyl-7,8-dihydro-6H-cyclopenta[e]pyrazolo[1,5-a]pyrimidine-6-carboxamide] was tested, and the IC50 [3] was no less than 1000 nM.

Work on `CC1(C)C[C@H](C(=O)Nc2cnc([C@@H]3CCCO3)c(Cl)c2)c2cnc3cc(Cl)nn3c21` (single isomer, unassigned) [Example 28, 2-chloro-N-(5-chloro-6-(tetrahydrofuran-2-yl)pyridin-3-yl)-8,8-dimethyl-7,8-dihydro-6H-cyclopenta[e]pyrazolo[1,5-a]pyrimidine-6-carboxamide] yielded an IC50 [3] of 100 to 1000 nM.

For `CC1(C)C[C@@H](C(=O)Nc2cnc([C@H]3CCCO3)c(Cl)c2)c2cnc3cc(Cl)nn3c21` (single isomer, unassigned) [Example 27, 2-chloro-N-(5-chloro-6-(tetrahydrofuran-2-yl)pyridin-3-yl)-8,8-dimethyl-7,8-dihydro-6H-cyclopenta[e]pyrazolo[1,5-a]pyrimidine-6-carboxamide], the IC50 [3] was no less than 1000 nM.

With `C[C@@]1(C(F)(F)F)C[C@@H](C(=O)Nc2cnc(-n3nccn3)c(Cl)c2)c2cnc3cc(Cl)nn3c21` (single isomer, unassigned) [Example 39, 2-chloro-N-(5-chloro-6-(2H-1,2,3-triazol-2-yl)pyridin-3-yl)-8-methyl-8-(trifluoromethyl)-7,8-dihydro-6H-cyclopenta[e]pyrazolo[1,5-a]pyrimidine-6-carboxamide] the IC50 [3] was 10 to 100 nM.

`CC1(C)C[C@@H](C(=O)Nc2cnc(-n3nccn3)c(Cl)c2)c2cnc3cc(F)nn3c21` (single isomer, unassigned) [Example 32, N-(5-chloro-6-(2H-1,2,3-triazol-2-yl)pyridin-3-yl)-2-fluoro-8,8-dimethyl-7,8-dihydro-6H-cyclopenta[e]pyrazolo[1,5-a]pyrimidine-6-carboxamide] was tested, and the IC50 [3] was no less than 1000 nM.

Compound `CC1(C)C[C@@H](C(=O)Nc2cnc([C@@H]3CCCO3)c(Cl)c2)c2cnc3cc(Cl)nn3c21` (single isomer, unassigned) [Example 26, 2-chloro-N-(5-chloro-6-(tetrahydrofuran-2-yl)pyridin-3-yl)-8,8-dimethyl-7,8-dihydro-6H-cyclopenta[e]pyrazolo[1,5-a]pyrimidine-6-carboxamide] has an IC50 [3] of no less than 1000 nM.
